Values quoted from earlier work in patent US8557836B2 (priority 2008, dated 2013).

System: M2 ion channel with mutations at M2 residues 27, 30, 31, and 34
Conditions: mutations at M2 residues 27, 30, 31, and 34 in the M2 transmembrane domain; cited from earlier work

## C1CCC2(CC1)CCN(C1=NCCN1)CC2 [BL-1743, 3-(4,5-dihydro-1H-imidazol-2-yl)-3-azaspiro[5,5]undecane hydroiodide, reference compound]
  resistance to BL-1743 induced by amantadine resistance mutations: complete
